Assay results as given in ChEMBL document CHEMBL3044672, “N9- and N7-(Chloromethyl Phenymethyl)Chloropurine Derivatives from , '-Dichloroxylenes: Synthesis and Anticancer Activity” (2005).

How the values were obtained:
Assay type in all cases: functional
[1] = tested on: ACHN; test: Cytotoxicity against Homo sapiens (human) ACHN cells after 48 hr by sulforhodamine B assay; details: for CC50: read-out: LC50 (the source's name)
[2] = tested on: 786-0; test: Cytotoxicity against Homo sapiens (human) 786-0 cells after 48 hr by sulforhodamine B assay; details: 786-0, 48 h
[3] = tested on: SK-OV-3; test: Cytotoxicity against Homo sapiens (human) SKOV3 cells after 48 hr by sulforhodamine B assay; details: SK-OV-3, 48 h
[4] = tested on: UACC-62; test: Cytotoxicity against Homo sapiens (human) UACC62 cells after 48 hr by sulforhodamine B assay; details: UACC-62, 48 h
[5] = tested on: SK-MEL-28; test: Cytotoxicity against Homo sapiens (human) SK-MEL-28 cells after 48 hr by sulforhodamine B assay; details: SK-MEL-28, 48 h
[6] = tested on: U-251; test: Cytotoxicity against Homo sapiens (human) U251 cells after 48 hr by sulforhodamine B assay; details: U-251, 48 h
[7] = tested on: T47D; test: Cytotoxicity against Homo sapiens (human) T47D cells after 48 hr by sulforhodamine B assay
[8] = tested on: MDA-MB-435; test: Cytotoxicity against Homo sapiens (human) MDA-MB-435 cells after 48 hr by sulforhodamine B assay; details: MDA-MB-435, 48 h
[9] = tested on: BT-549; test: Cytotoxicity against Homo sapiens (human) BT549 cells after 48 hr by sulforhodamine B assay; details: BT-549, 48 h
[10] = tested on: Hs-578T; test: Cytotoxicity against Homo sapiens (human) Hs 578T cells after 48 hr by sulforhodamine B assay
[11] = Cytotoxicity against Homo sapiens (human) NCI-ADR-RES cells after 48 hr by sulforhodamine B assay
[12] = tested on: MDA-MB-231; test: Cytotoxicity against Homo sapiens (human) MDA-MB-231 cells after 48 hr by sulforhodamine B assay; details: MDA-MB-231, 48 h
[13] = tested on: MCF7; test: Cytotoxicity against Homo sapiens (human) MCF7 cells after 48 hr by sulforhodamine B assay; details: MCF7, 48 h
[14] = tested on: UO-31; test: Cytotoxicity against Homo sapiens (human) UO31 cells after 48 hr by sulforhodamine B assay; details: UO-31, 48 h
[15] = tested on: PC-3; test: Cytotoxicity against Homo sapiens (human) PC3 cells after 48 hr by sulforhodamine B assay; details: PC-3, 48 h
[16] = tested on: SN12C; test: Cytotoxicity against Homo sapiens (human) SN12C cells after 48 hr by sulforhodamine B assay
[17] = tested on: RXF 393; test: Cytotoxicity against Homo sapiens (human) RXF393 cells after 48 hr by sulforhodamine B assay; details: RXF 393, 48 h; for CC50: read-out: LC50 (the source's name)
[18] = tested on: SF-268; test: Cytotoxicity against Homo sapiens (human) SF268 cells after 48 hr by sulforhodamine B assay; details: SF-268, 48 h; for CC50: read-out: LC50 (the source's name)
[19] = tested on: KM12; test: Cytotoxicity against Homo sapiens (human) KM12 cells after 48 hr by sulforhodamine B assay; details: KM12, 48 h; for CC50: read-out: LC50 (the source's name)
[20] = tested on: HCT-15; test: Cytotoxicity against Homo sapiens (human) HCT15 cells after 48 hr by sulforhodamine B assay; details: HCT-15, 48 h; for CC50: read-out: LC50 (the source's name)
[21] = tested on: COLO 205; test: Cytotoxicity against Homo sapiens (human) COLO205 cells after 48 hr by sulforhodamine B assay; details: COLO 205, 48 h; for CC50: read-out: LC50 (the source's name)
[22] = tested on: NCI-H522; test: Cytotoxicity against Homo sapiens (human) NCI-H522 cells after 48 hr by sulforhodamine B assay; details: NCI-H522, 48 h; for CC50: read-out: LC50 (the source's name)
[23] = tested on: NCI-H460; test: Cytotoxicity against Homo sapiens (human) NCI-H460 cells after 48 hr by sulforhodamine B assay; details: NCI-H460, 48 h; for CC50: read-out: LC50 (the source's name)
[24] = tested on: NCI-H322M; test: Cytotoxicity against Homo sapiens (human) NCI-H322M cells after 48 hr by sulforhodamine B assay; details: for CC50: read-out: LC50 (the source's name)
[25] = tested on: NCI-H23; test: Cytotoxicity against Homo sapiens (human) NCI-H23 cells after 48 hr by sulforhodamine B assay; details: NCI-H23, 48 h; for CC50: read-out: LC50 (the source's name)
[26] = tested on: NCI-H226; test: Cytotoxicity against Homo sapiens (human) NCI-H226 cells after 48 hr by sulforhodamine B assay; details: NCI-H226, 48 h; for CC50: read-out: LC50 (the source's name)
[27] = tested on: HOP-62; test: Cytotoxicity against Homo sapiens (human) HOP62 cells after 48 hr by sulforhodamine B assay; details: HOP-62, 48 h; for CC50: read-out: LC50 (the source's name)
[28] = tested on: HOP-92; test: Cytotoxicity against Homo sapiens (human) HOP92 cells after 48 hr by sulforhodamine B assay; details: HOP-92, 48 h
[29] = tested on: MOLT-4; test: Cytotoxicity against Homo sapiens (human) MOLT4 cells after 48 hr by sulforhodamine B assay; details: MOLT-4, 48 h; for CC50: read-out: LC50 (the source's name)
[30] = tested on: CCRF-CEM; test: Cytotoxicity against Homo sapiens (human) CCRF-CEM cells after 48 hr by sulforhodamine B assay; details: for CC50: read-out: LC50 (the source's name)
[31] = tested on: SF-268; test: Cytotoxicity against Homo sapiens (human) SF268 cells assessed as cell growth at 10^-4 M after 48 hr by […] assay; details: SF-268, 48 h, read-out: Activity
[32] = tested on: NCI-H460; test: Cytotoxicity against Homo sapiens (human) NCI-H460 cells assessed as cell growth at 10^-4 M after 48 hr by Alamar blue assay; details: NCI-H460, 48 h, read-out: Activity

SMILES: ClCc1cccc(Cn2cnc3c(Cl)ncnc32)c1
- GI50 [1]: 2.08 µM
- TGI [1]: 4.07 µM
- CC50 [1]: 8.12 µM
- GI50 [2]: 6.16 µM
- LC50 [2]: 50.1 µM
- TGI [2]: 19.9 µM
- GI50 [3]: 3.31 µM
- LC50 [3]: 33.1 µM
- TGI [3]: 10.5 µM
- GI50 [4]: 1.82 µM
- LC50 (concentration causing 50% net cell kill) [4]: 6.31 µM
- TGI [4]: 3.38 µM
- GI50 [5]: 2.23 µM
- LC50 (concentration killing 50% of cells) [5]: 28.8 µM
- TGI [5]: 5.75 µM
- GI50 [6]: 1.82 µM
- LC50 (concentration killing 50% of cells) [6]: 6.76 µM
- TGI [6]: 3.46 µM
- GI50 [7]: 3.02 µM
- LC50 [7]: > 100 µM
- TGI [7]: 12.3 µM
- GI50 [8]: 1.69 µM
- LC50 [8]: 6.45 µM
- TGI [8]: 3.31 µM
- GI50 [9]: 15.1 µM
- LC50 (50% lethal concentration) [9]: 60.3 µM
- TGI [9]: 30.2 µM
- GI50 [10]: 3.46 µM
- LC50 [10]: 81.3 µM
- TGI [10]: 11.5 µM
- GI50 [11]: 2.45 µM
- LC50 (concentration killing 50% of cells) [11]: 37.1 µM
- TGI [11]: 7.58 µM
- GI50 [12]: 1.99 µM
- LC50 [12]: 8.12 µM
- TGI [12]: 4.07 µM
- GI50 [13]: 7.76 µM
- LC50 (concentration killing 50% of cells) [13]: > 100 µM
- TGI [13]: 77.6 µM
- GI50 [14]: 1.44 µM
- LC50 (concentration causing 50% net cell kill) [14]: 89.1 µM
- TGI [14]: 36.3 µM
- GI50 [15]: 4.16 µM
- LC50 (concentration causing 50% cell kill) [15]: 67.6 µM
- TGI [15]: 18.2 µM
- GI50 [16]: 2.34 µM
- LC50 (50% lethal concentration) [16]: 14.5 µM
- TGI [16]: 5.12 µM
- GI50 [17]: 2.29 µM
- TGI [17]: 24 µM
- CC50 [17]: 70.8 µM
- GI50 [18]: 3.54 µM
- TGI [18]: 15.5 µM
- CC50 [18]: > 100 µM
- GI50 [19]: 3.46 µM
- TGI [19]: 13.5 µM
- CC50 [19]: 3.98 µM
- GI50 [20]: 2.18 µM
- TGI [20]: 4.67 µM
- CC50 [20]: 10 µM
- GI50 [21]: 3.09 µM
- TGI [21]: 10.5 µM
- CC50 [21]: 74.1 µM
- GI50 [22]: 18.6 µM
- TGI [22]: 66.1 µM
- CC50 [22]: > 100 µM
- GI50 [23]: 11.8 µM
- TGI [23]: 36.3 µM
- CC50 [23]: > 100 µM
- GI50 [24]: 1.9 µM
- TGI [24]: 3.46 µM
- CC50 [24]: 6.45 µM
- GI50 [25]: 1.9 µM
- TGI [25]: 4.07 µM
- CC50 [25]: 8.71 µM
- GI50 [26]: 2.13 µM
- TGI [26]: 14.4 µM
- CC50 [26]: 8.91 µM
- GI50 [27]: 2.63 µM
- TGI [27]: 5.12 µM
- CC50 [27]: 10.2 µM
- GI50 [28]: 2.45 µM
- TGI [28]: 6.16 µM
- CC50 ([28]; read-out: LC50 (the source's name)): 31.6 µM
- GI50 [29]: 15.8 µM
- TGI [29]: 37.1 µM
- CC50 [29]: 89.1 µM
- GI50 [30]: 1.9 µM
- TGI [30]: 3.89 µM
- CC50 [30]: 7.62 µM

SMILES: ClCc1ccc(Cn2cnc3c(Cl)nc(Cl)nc32)cc1
- GI50 [1]: 2.34 µM
- TGI [1]: 5.25 µM
- CC50 [1]: 14.8 µM
- GI50 [2]: 14.1 µM
- LC50 [2]: 61.7 µM
- TGI [2]: 29.5 µM
- GI50 [3]: 13.5 µM
- LC50 [3]: 66.1 µM
- TGI [3]: 29.5 µM
- GI50 [4]: 2.04 µM
- LC50 (concentration causing 50% net cell kill) [4]: 9.33 µM
- TGI [4]: 4.37 µM
- GI50 [5]: 2.69 µM
- LC50 (concentration killing 50% of cells) [5]: 46.8 µM
- TGI [5]: 6.92 µM
- GI50 [6]: 2.04 µM
- LC50 (concentration killing 50% of cells) [6]: 7.41 µM
- TGI [6]: 3.89 µM
- GI50 [7]: 1.38 µM
- LC50 [7]: > 100 µM
- TGI [7]: 5.5 µM
- GI50 [8]: 12.6 µM
- LC50 [8]: 50.1 µM
- TGI [8]: 25.1 µM
- GI50 [9]: 15.8 µM
- LC50 (50% lethal concentration) [9]: 56.2 µM
- TGI [9]: 29.5 µM
- GI50 [10]: 2.14 µM
- LC50 [10]: > 100 µM
- TGI [10]: 5.75 µM
- GI50 [11]: 16.6 µM
- LC50 (concentration killing 50% of cells) [11]: > 100 µM
- TGI [11]: > 100 µM
- GI50 [12]: 1.82 µM
- LC50 [12]: 7.24 µM
- TGI [12]: 3.63 µM
- GI50 [13]: 1.74 µM
- LC50 (concentration killing 50% of cells) [13]: > 100 µM
- TGI [13]: 3.98 µM
- GI50 [14]: 19.5 µM
- LC50 (concentration causing 50% net cell kill) [14]: 66.1 µM
- TGI [14]: 35.5 µM
- GI50 [15]: 2.69 µM
- LC50 (concentration causing 50% cell kill) [15]: 45.7 µM
- TGI [15]: 7.24 µM
- GI50 [16]: 7.24 µM
- LC50 (50% lethal concentration) [16]: 51.3 µM
- TGI [16]: 20.9 µM
- GI50 [17]: 20.9 µM
- TGI [17]: 41.7 µM
- CC50 [17]: 83.2 µM
- GI50 [18]: 2.51 µM
- TGI [18]: 5.37 µM
- CC50 [18]: 42.7 µM
- GI50 [19]: 1.82 µM
- TGI [19]: 3.24 µM
- CC50 [19]: 5.75 µM
- GI50 [20]: 1.86 µM
- TGI [20]: 3.8 µM
- CC50 [20]: 7.59 µM
- GI50 [21]: 3.47 µM
- TGI [21]: > 100 µM
- CC50 [21]: > 100 µM
- GI50 [22]: 22.4 µM
- TGI [22]: 46.8 µM
- CC50 [22]: 97.7 µM
- GI50 [23]: 2.4 µM
- TGI [23]: 4.9 µM
- CC50 [23]: 28.8 µM
- GI50 [24]: 12.6 µM
- TGI [24]: 25.1 µM
- CC50 [24]: 50.1 µM
- GI50 [25]: 7.59 µM
- TGI [25]: 23.4 µM
- CC50 [25]: 58.9 µM
- GI50 [26]: 3.55 µM
- TGI [26]: 9.55 µM
- CC50 [26]: 33.9 µM
- GI50 [27]: 2.19 µM
- TGI [27]: 5.13 µM
- CC50 [27]: 19.5 µM
- GI50 [29]: 10.5 µM
- TGI [29]: 27.5 µM
- CC50 [29]: 72.4 µM
- GI50 [30]: 1.95 µM
- TGI [30]: 4.57 µM
- CC50 [30]: 14.1 µM
- growth at 100 µM [31]: 0%
- growth at 100 µM [32]: 0%
